This passage reports IC50 results from patent publication US9873690B2, “3-indol substituted derivatives, pharmaceutical compositions and methods for use” (Pfizer Inc., priority 2015, dated 2018).

SMILES strings stand for the structures. pIC50: −log10 of the molar value.

T1 sequence (P48775 whole entry): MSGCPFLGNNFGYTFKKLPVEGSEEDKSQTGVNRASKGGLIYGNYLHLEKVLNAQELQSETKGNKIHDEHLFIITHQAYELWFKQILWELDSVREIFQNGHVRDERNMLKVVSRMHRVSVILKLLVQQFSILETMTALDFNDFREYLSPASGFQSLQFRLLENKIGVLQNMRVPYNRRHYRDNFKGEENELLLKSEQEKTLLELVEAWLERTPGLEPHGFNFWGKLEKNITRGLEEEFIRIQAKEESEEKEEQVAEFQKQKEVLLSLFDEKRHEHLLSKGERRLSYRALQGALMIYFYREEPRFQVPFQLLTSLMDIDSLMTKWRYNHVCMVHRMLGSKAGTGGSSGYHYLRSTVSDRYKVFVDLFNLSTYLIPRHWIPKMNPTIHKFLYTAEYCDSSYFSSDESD

The experiment concerns the target T1, hTDO2 (Homo sapiens, UniProt P48775).
T1 construct: endogenous in cells; host or cells: A172 human brain glioblastoma cells (ATCC CRL-1620)
The experiment can be described thus: Cellular assay for TDO2 activity determination in A172 cells. In kind it is cell-based. As to conditions: human glioblastoma A172 cells naturally expressing hTDO2; overnight incubation; kynurenine by absorbance at 480 nm. As to the method:
The compounds of formula I inhibit the activity of human TDO2 in cells that constitutively express TDO2, such as A172 cells. A172 is a cell line derived from human brain glioblastoma cells. The cells are available from the American Type Culture Collection (ATCC®) as CRL-1620™.
The assay (adapted from Pilotte L et al., Proc Natl Acad Sci USA, 2012, 109(7), 2497-502) was performed in 96-well flat bottom plates seeded with human glioblastoma A172 cells, naturally expressing hTDO2 (prepared as described in Tilman et al., Mol Cancer, 2007, 17(6), 80), at a concentration of 1.25×10^4 cells/well in a final volume of 200 μL. To determine TDO, the cells were incubated overnight at 37° C. at 5% CO2 in IMDM (Invitrogen) supplemented with 2% FBS and 2% penicillin/streptomycin in the presence of the compounds of the present invention, at different concentrations.
The plates were then centrifuged 5 min at 1000 rpm, and 100 μL of the supernatant were collected in a conical plate, 30 μL of TCA 30% were added and a further centrifuged at 3000×g for 10 minutes. 100 μL of the supernatant were collected in a flat bottomed plate and 100 μL of 2% (w/v) 4-(dimethylamino)-benzaldehyde in acetic acid and incubated for 5 min at room temperature. Kynurenine concentrations were determined by measuring the absorbance at 480 nm. A standard curve was made with pure kynurenine. The TDO activity was measured as described above using ten serial concentrations of the compounds of the present invention. Data were fitted using the Prism™ software (GraphPad Software, Inc.) using standard parameters.
The biological activity of representative compounds in human brain glioblastoma cells as determined in the above-referenced assay is summarized in the following table: […]
In turn, `O=S1(=O)c2ccc(-c3c[nH]c4cc(F)ccc34)cc2CN1[C@@H]1CCOC1` [Example 38, (R)-5-(6-fluoro-1H-indol-3-yl)-2-(tetrahydrofuran-3-yl)-2,3-dihydrobenzo[d]isothiazole 1,1-dioxide] gave a negative logarithm of the IC50 (pIC50) of 6.42.
For `COC(=O)C1NS(=O)(=O)c2ccc(-c3c[nH]c4cc(F)ccc34)cc21` (racemic) [Example 14, methyl 5-(6-fluoro-1H-indol-3-yl)-2,3-dihydrobenzo-[d]isothiazole-3-carboxylate 1,1-dioxide] the value was 5.09; for `C[C@H]1NS(=O)(=O)c2ccc(-c3c[nH]c4cc(F)ccc34)cc21` (single isomer, unassigned) [Example 1, (+)-5-(6-fluoro-1H-indol-3-yl)-3-methyl-2,3-dihydro-1,2-benzothiazole 1,1-dioxide], 7.57.
Then `CC1c2cc(-c3c[nH]c4cc(F)ccc34)ccc2S(=O)(=O)N1CC1(C)COC(=O)N1` (single isomer, unassigned) [Example 87], with 6.50.
For `O=S1(=O)NC(CCO)c2cc(-c3c[nH]c4cc(F)ccc34)ccc21` (single isomer, unassigned; (+)) [Example 30, (+)-5-(6-fluoro-1H-indol-3-yl)-3-(2-hydroxyethyl)-2,3-dihydrobenzo[d]isothiazole 1,1-dioxide] the value was 7.47; for `CC1c2cc(-c3c[nH]c4cc(F)ccc34)ccc2S(=O)(=O)N1CCN1CCNCC1=O` (single isomer, unassigned; (+)) [Example 66, (+)1-(2-(5-(6-fluoro-1H-indol-3-yl)-3-methyl-1,1-dioxidobenzo[d]isothiazol-2(3H)-yl)ethyl)piperazin-2-one], 6.61; for `O=S1(=O)c2ccc(-c3c[nH]c4cc(F)ccc34)cc2C(CO)N1CC(O)CO` (single isomer, unassigned; (-)) [Example 143, (−)-2-(2,3-dihydroxypropyl)-5-(6-fluoro-1H-indol-3-yl)-3-(hydroxymethyl)-2,3-dihydrobenzo[d]isothiazole 1,1-dioxide], 6.47.
With `CC1c2cc(-c3c[nH]c4cc(F)ccc34)ccc2S(=O)(=O)N1CCN1CCOCC1` (single isomer, unassigned; (+)) [Example 118, (+)-5-(6-fluoro-1H-indol-3-yl)-3-methyl-2-(2-morpholinoethyl)-2,3-dihydrobenzo[d]isothiazole 1,1-dioxide], the pIC50 is 6.72. This pIC50 is 0.25 log units higher than that of the molecule before.
Then `CC1c2cc(-c3c[nH]c4cc(F)ccc34)ccc2S(=O)(=O)N1C1CNC(=O)C1` (single isomer, unassigned; (+)) [Example 126, (+)-4-(5-(6-fluoro-1H-indol-3-yl)-3-methyl-1,1-dioxidobenzo[d]isothiazol-2(3H)-yl)pyrrolidin-2-one], with 7.11; and `CC1c2cc(-c3c[nH]c4cc(F)ccc34)ccc2S(=O)(=O)N1CC1CCNCC1` (single isomer, unassigned; (+)) [Example 78, (+)-5-(6-fluoro-1H-indol-3-yl)-3-methyl-2-(piperidin-4-ylmethyl)-2,3-dihydrobenzo[d]isothiazole 1,1-dioxide], with 6.76; and `CC1c2cc(-c3c[nH]c4cc(F)ccc34)ccc2S(=O)(=O)N1C1CCNCC1` (single isomer, unassigned; (-)) [Example 51, (−)-5-(6-fluoro-1H-indol-3-yl)-3-methyl-2-(piperidin-4-yl)-2,3-dihydrobenzo[d]isothiazole 1,1-dioxide], with 6.73.
For `CN(C)CC1NS(=O)(=O)c2ccc(-c3c[nH]c4cc(F)ccc34)cc21` (single isomer, unassigned; (+)) [Example 26, (+)-3-((dimethylamino)methyl)-5-(6-fluoro-1H-indol-3-yl)-2,3-dihydrobenzo[d]isothiazole 1,1-dioxide] the value was 6.36; for `CN1CC(N2Cc3cc(-c4c[nH]c5cc(F)ccc45)ccc3S2(=O)=O)C1` [Example 41, 5-(6-fluoro-1H-indol-3-yl)-2-(1-methylazetidin-3-yl)-2,3-dihydrobenzo[d]isothiazole 1,1-dioxide], 6.36.
Then `CC1c2cc(-c3c[nH]c4cc(F)ccc34)ccc2S(=O)(=O)N1CCc1n[nH]c(=O)o1` (single isomer, unassigned; (+)) [Example 134, (+)-5-(2-(5-(6-fluoro-1H-indol-3-yl)-3-methyl-1,1-dioxidobenzo[d]isothiazol-2 (3H)-yl)ethyl)-1,3,4-oxadiazol-2(3H)-one], with 7.28; and `Cn1cnc(CN2C(CO)c3cc(-c4c[nH]c5cc(F)ccc45)ccc3S2(=O)=O)n1` (single isomer, unassigned; (-)) [Example 129, (−)-5-(6-fluoro-1H-indol-3-yl)-3-(hydroxymethyl)-2-((1-methyl-1H-1,2,4-triazol-3-yl)methyl)-2,3-dihydrobenzo[d]isothiazole 1,1-dioxide], with 7.41.
In turn, `CC1c2cc(-c3c[nH]c4cc(F)ccc34)ccc2S(=O)(=O)N1CCS(C)(=O)=O` (single isomer, unassigned; (+)) [Example 53, (+)-5-(6-fluoro-1H-indol-3-yl)-3-methyl-2-(2-(methylsulfonyl)ethyl)-2,3-dihydrobenzo[d]isothiazole 1,1-dioxide] showed a pIC50 of 7.15.
`O=S1(=O)c2ccc(-c3c[nH]c4cc(F)ccc34)cc2C(CO)N1CCO` (single isomer, unassigned; (-)) [Example 132, (−)-5-(6-fluoro-1H-indol-3-yl)-2-(2-hydroxyethyl)-3-(hydroxymethyl)-2,3-dihydrobenzo[d]isothiazole 1,1-dioxide] showed a negative logarithm of the IC50 (pIC50) of 7.09. This pIC50 and that of the molecule before are within 0.2 log units of each other.
Then `CC(=O)N1CCC(N2C(C)c3cc(-c4c[nH]c5cc(F)ccc45)ccc3S2(=O)=O)CC1` (single isomer, unassigned; (+)) [Example 71, (+)-1-(4-(5-(6-fluoro-1H-indol-3-yl)-3-methyl-1,1-dioxidobenzo[d]isothiazol-2(3H)-yl)piperidin-1-yl)ethanone], with 6.47.
For `CC1c2cc(-c3c[nH]c4cc(F)ccc34)ccc2S(=O)(=O)N1CCS(N)(=O)=O` (single isomer, unassigned; (-)) [Example 62, (−)-2-(5-(6-fluoro-1H-indol-3-yl)-3-methyl-1,1-dioxidobenzo[d]-isothiazol-2(3H)-yl)ethane-1-sulfonamide] the value was 7.17; for `NC(=O)C1NS(=O)(=O)c2ccc(-c3c[nH]c4cc(F)ccc34)cc21` (single isomer, unassigned; (-)) [Example 15, (−)-5-(6-fluoro-1H-indol-3-yl)-2,3-dihydrobenzo[d]-Isothiazole-3-carboxamide 1,1-dioxide], 5.68.
As for `CC1c2cc(-c3c[nH]c4cc(F)ccc34)ccc2S(=O)(=O)N1C1CNC1` (single isomer, unassigned; (+)) [Example 92, (+)-2-(azetidin-3-yl)-5-(6-fluoro-1H-indol-3-yl)-3-methyl-2,3-dihydrobenzo[d]isothiazole 1,1-dioxide], the pIC50 was 7.57.
For `CC1c2cc(-c3c[nH]c4cc(F)ccc34)ccc2S(=O)(=O)N1C[C@]1(C)CCC(=O)N1` (single isomer, unassigned; (+)) [Example 81] the value was 6.33; for `CC1c2cc(-c3c[nH]c4cc(F)ccc34)ccc2S(=O)(=O)N1C[C@@H](O)CO` (single isomer, unassigned) [Example 93], 6.57; for `COC(=O)NCC1NS(=O)(=O)c2ccc(-c3c[nH]c4cc(F)ccc34)cc21` (single isomer, unassigned; (-)) [Example 21, (−)-methyl ((5-(6-fluoro-1H-indol-3-yl)-1,1-dioxido-2,3-dihydrobenzo[d]isothiazol-3-yl)methyl)carbamate], 6.81.
The molecule `CC1c2cc(-c3c[nH]c4cc(F)ccc34)ccc2S(=O)(=O)N1CC1CCN(C)CC1` (single isomer, unassigned; (+)) [Example 80, (+)-5-(6-fluoro-1H-indol-3-yl)-3-methyl-2-((1-methylpiperidin-4-yl)methyl)-2,3-dihydrobenzo[d]isothiazole 1,1-dioxide] had a negative-log IC50 (pIC50) of 7.25.
Then `O=S1(=O)NC(CCO)c2cc(-c3c[nH]c4cc(F)ccc34)ccc21` (single isomer, unassigned; (-)) [Example 29, (−)-5-(6-fluoro-1H-indol-3-yl)-3-(2-hydroxyethyl)-2,3-dihydrobenzo[d]isothiazole 1,1-dioxide], with 6.90.
Then `CC1c2cc(-c3c[nH]c4cc(F)ccc34)ccc2S(=O)(=O)N1CCN1CCOCC1` (single isomer, unassigned; (-)) [Example 117, (−)-5-(6-fluoro-1H-indol-3-yl)-3-methyl-2-(2-morpholinoethyl)-2,3-dihydrobenzo[d]isothiazole 1,1-dioxide], with 6.51.

Broadly, the pIC50 is the IC50 on a negative log10 scale, so that one unit is a factor of ten. High values mean a low IC50, low ones a high IC50.
